The source of these data is patent publication US7091025B2, “Malathion carboxylesterase” (priority 1995, dated 2006).

Where two headings read alike, the source gives them in different places.

The subject of experiment [1] is adult female L. cuprina. It counts as in vivo. Conditions: for RF (Mal R): ratio of the LD50 of Woodside 5.2 with the LD50 of LS2 / RF (Dz/para R): ratio of the LD50 of Llandillo 103 with the LD50 of LS2: L. cuprina, NS = not significantly different from unity; for LD50 LS2 (OP Susceptible), with 95% confidence limits: strain LS2, topical in dioctylphthalate; for LD50 LS2 (OP Susceptible), with 95% confidence limits / LD50 Llandillo 103 (Dz/para Resistant), with 95% confidence limits / LD50 Woodside 5.2 (Mal Resistant), with 95% confidence limits: mortality at 24 hours; for LD50 Llandillo 103 (Dz/para Resistant), with 95% confidence limits: strain Llandillo 103, topical; for LD50 Woodside 5.2 (Mal Resistant), with 95% confidence limits: strain Woodside 5.2, topical. The source says: (§1) The following organophosphorus compounds were used: diazinon (O,O-diethyl O-2-isopropyl-6-methylpyrimidin-4-yl phosphorothioate, 91%, Mallinckrodt), parathion-methyl (O,O-dimethyl O-4-nitrophenyl phosphorothioate, 97.0%, Bayer), parathion (O,O-diethyl O-4-nitrophenyl phosphorothioate, 99%, Pestanal grade, Riedel-de-Haën), fenthion (O,O-dimethyl O-[3-methyl-4-(methylthio)phenyl]phosphorothioate, 98.8%, Bayer), fenthion-ethyl (O,O-diethyl O-[3-methyl-4-(methylthio)phenyl] phosphorothioate, a gift from Dr. G. Levot), dichlorvos (2,2-dichlorovinyl dimethyl phosphate, 99%, Chem Service), diethyl-dichlorvos (2,2-dichlorovinyl diethyl phosphate, a gift from Dr. J. Desmarchelier), di-isopropyl-dichlorvos (2,2-dichlorovinyl di-isopropyl phosphate, a gift from Dr. J. Desmarchelier), malathion (S-1,2-bis(ethoxycarbonyl)ethyl O,O-dimethyl phosphorodithioate, technical grade, Nufarm), isopropyl malathion (S-1,2-bis(ethoxycarbonyl)ethyl O,O-di-isopropyl phosphorodithioate, a gift from Dr. J. Desmarchelier).
(§2) The toxicity of OPs in adult female L. cuprina was determined 3 or 4 days post-eclosion by application of OPs to the scutellum in 0.7 μl dioctylphthalate (Busvine, J. R., Bell, J. D. and Guneidy, A. M., Bulletin of Entomological Research 54: 589, 1963;; Townsend, M. G. and Busvine, J. R., Entomology Experimental and Applied 12: 243, 1969). Each OP was applied to at least 20 flies at each of at least 5 different concentrations, spanning the dose causing 50% mortality (LD50). Control groups were treated with solvent but no OP. Mortality was determined 24 hours later. Data were fitted to the probit curve using the Probit Or LOgit (POLO-PC) computer program (LeOra Software, 1987).

In experiment [2] the test system is M. domestica. The conditions noted are these: cited from earlier work; for Resistance factor of M. domestica (in parentheses), Dz/para resistance type / Resistance factor of M. domestica (in parentheses), malathion resistance type: Bell and Busvine 1967, Townsend and Busvine 1969.
For experiment [3], the system named is adult L. cuprina, Llandillo 103 strain (Dz/para Resistant). As to the kind of experiment: toxicity of OPs in adult female L. cuprina, Llandillo 103 strain. It counts as in vivo, Lucilia cuprina.
Text: as §1, §2
(§3) LD50s of 10 OPs were determined for the Woodside 5.2 strain (homozygous for a malathion resistance allele of LcαE7) and the Llandillo 103 strain (homozygous for a parathion/diazinon resistance allele of LcαE7). LD50s were also determined for the OP susceptible LS2 strain in order to calculate resistance factors (Table 8).

Experiment [4] relates to adult L. cuprina, Woodside 5.2 strain (Mal Resistant). The experiment is classed as in vivo, Lucilia cuprina.
Text: as §1, §2, §3

Experiment [5] deals with whole fly homogenates of L. cuprina strains. As to the kind of experiment: Chlorfenvinphos hydrolysis by whole fly homogenates. It counts as biochemical. How it is done: Enzyme samples were diluted in 0.1M imidazole-HCl buffer pH 7.0 (“imidazole buffer”) to a final volume of 50 μl. Reactions were started by the addition 0.5 μl of (^14C-ethyl)-chlorfenvinphos (CVP, 306.5 MBq/mmole, Internationale Isotope Munchen) from a 7.5 mM stock solution in ethanol. The reaction was incubated at 30° C. and stopped by the addition of 300 μl dichloromethane and 150 μl of water followed by vigorous vortex mixing. The reactions were centrifuged to separate phases and 150 μl of the upper, aqueous phase was taken for scintillation counting to determine the amount of ^14C-diethylphosphate produced by hydrolysis of CVP. Incubations with boiled enzyme were also performed to control for non-enzymic hydrolysis of CVP.
Whole fly homogenates of malathion resistant (strains RM-8, 60NE 1.1, 4.2, Beverly 6.2, Hampton Hill 6.1, Hampton Hill 6.2, Woodside 5.2, Rop Rmal 1, M22.2 6.3, M27.1 4.1), diazinon resistant (Gunning 107, Inverell 22, Q4, RM2.6, Llandillo 103, Sunbury 5.2) and susceptible (LBB 101, Llandillo 104, LS2) strains of L. cuprina were tested for esterase-mediated hydrolysis of CVP, a general OP (ie not a malathion-type OP). All 10 malathion resistant strains had greater CVP hydrolytic activities (1.5–3.0 pmol/min/mg) than the 3 susceptible strains (0.5–1.0 pmol/min/mg, but less activity than the 6 diazinon resistant strains (8.2–30.0 pmol/min/mg).

For the molecule `CC(C)OP(=O)(OC=C(Cl)Cl)OC(C)C` [Isopropyl Dichlorvos, 2,2-dichlorovinyl di-isopropyl phosphate], in experiment [1], the “RF (Mal R): ratio of the LD50 of Woodside 5.2 with the LD50 of LS2” value (shortened to “RF (Mal R): ratio”) came out at 3; the “LD50 LS2 (OP Susceptible), with 95% confidence limits” value (shortened to “LD50 LS2 … with 95% confidence limits”) is listed as 3500 (2200–4800), ng/fly; the “LD50 Llandillo 103 (Dz/para Resistant), with 95% confidence limits” value is recorded as 4600 (3400–5900) ng/fly; the “LD50 Woodside 5.2 (Mal Resistant), with 95% confidence limits” value is 10200 (8800–12000) ng/fly.

Consider `CCOC(=O)CC(SP(=S)(OC)OC)C(=O)OCC` (centres unmarked) [Malathion, S-1,2-bis(ethoxycarbonyl)ethyl O,O-dimethyl phosphorodithioate], for which, in experiment [2], the “Resistance factor of M. domestica (in parentheses), Dz/para resistance type” value (“Resistance factor … Dz/para resistance type” below) is 2 and the “Resistance factor of M. domestica (in parentheses), malathion resistance type” value (“Resistance factor … malathion resistance type” below) was 157. Further, the “resistance to malathion of malathion resistant M. domestica strains” value in experiment [2] (literature) is > 100 fold. Also, in experiment [1], the “RF (Mal R): ratio” value is on record as > 130; the “LD50 LS2 … with 95% confidence limits” value is listed as 550 (480–610), ng/fly; the “LD50 Llandillo 103 (Dz/para Resistant), with 95% confidence limits” value is given as 490 (360–600) ng/fly; the “LD50 Woodside 5.2 (Mal Resistant), with 95% confidence limits” value was found to be 4 ng/fly. In addition, the “fold greater doses survived by flies with malathion resistance alleles of αE7” value in experiment [1] (in vivo) is given as “more than 100 fold”.

Take `CCOP(=S)(OCC)Oc1cc(C)nc(C(C)C)n1` [Diazinon, O,O-diethyl O-2-isopropyl-6-methylpyrimidin-4-yl phosphorothioate]: in experiment [2], the “Resistance factor … Dz/para resistance type” value is on record as 20 and the “Resistance factor … malathion resistance type” value is 2. Moreover, in experiment [1], the “RF (Dz/para R): ratio of the LD50 of Llandillo 103 with the LD50 of LS2” value (“RF (Dz/para R): ratio” for short) was determined as 10; the “RF (Mal R): ratio” value stood at 5; the “LD50 LS2 … with 95% confidence limits” value was 57 (40–79), ng/fly; the “LD50 Llandillo 103 (Dz/para Resistant), with 95% confidence limits” value is on record as 550 (490–630), ng/fly. Further, in experiment [1], the “LD50 Woodside 5.2 (Mal Resistant), with 95% confidence limits” value is given as 270 (240–300), ng/fly.

`CCOP(=S)(OCC)Oc1ccc(SC)c(C)c1` [Fenthion-ethyl, O,O-diethyl O-[3-methyl-4-(methylthio)phenyl] phosphorothioate]: in experiment [3], the “resistance factor towards diethyl OP vs its dimethyl analogue” value is on record as “no significant difference”. Besides, in experiment [1], the “RF (Dz/para R): ratio” value worked out at 2; the “RF (Mal R): ratio” value was found to be 2; the “LD50 LS2 … with 95% confidence limits” value was 330 (290–370) ng/fly; the “LD50 Llandillo 103 (Dz/para Resistant), with 95% confidence limits” value was 690 (570–830) ng/fly. Further, in experiment [1], the “LD50 Woodside 5.2 (Mal Resistant), with 95% confidence limits” value is on record as 730 (660–870) ng/fly.

As for `CCOC(=O)CC(SP(=S)(OC(C)C)OC(C)C)C(=O)OCC` (centres unmarked) [Isopropyl Malathion, S-1,2-bis(ethoxycarbonyl)ethyl O,O-di-isopropyl phosphorodithioate], the “Resistance factor … malathion resistance type” value in experiment [2] is given as 4. In experiment [1], the “RF (Mal R): ratio” value is given as 1.8; the “LD50 LS2 … with 95% confidence limits” value is 3600 (2700–4900), ng/fly; the “LD50 Llandillo 103 (Dz/para Resistant), with 95% confidence limits” value is on record as 4900 (3700–6200), ng/fly; the “LD50 Woodside 5.2 (Mal Resistant), with 95% confidence limits” value is reported as 6400 (5900–7100), ng/fly.

For the molecule `COP(=S)(OC)Oc1ccc([N+](=O)[O-])cc1` [Parathion-methyl, O,O-dimethyl O-4-nitrophenyl phosphorothioate], the “resistance factor towards dimethyl OP vs its diethyl analogue” value in experiment [4] (Woodside 5.2) was “about two- to five-fold greater resistance factors”. For the same molecule, in experiment [2], the “Resistance factor … Dz/para resistance type” value was 9 and the “Resistance factor … malathion resistance type” value is listed as 10. Moreover, in experiment [1], the “RF (Dz/para R): ratio” value worked out at 12; the “RF (Mal R): ratio” value came out at 27; the “LD50 LS2 … with 95% confidence limits” value is reported as 16 (11–20), ng/fly; the “LD50 Llandillo 103 (Dz/para Resistant), with 95% confidence limits” value is recorded as 185 (141–244), ng/fly. For the same molecule, in experiment [1], the “LD50 Woodside 5.2 (Mal Resistant), with 95% confidence limits” value is 430 (390–490), ng/fly.

As to `CCOP(=S)(OCC)Oc1ccc([N+](=O)[O-])cc1` [Parathion, O,O-diethyl O-4-nitrophenyl phosphorothioate], in experiment [3], the “resistance factor towards diethyl OP vs its dimethyl analogue” value was “about two-fold greater resistance factors”. Also, in experiment [2], the “Resistance factor … Dz/para resistance type” value is on record as 35 and the “Resistance factor … malathion resistance type” value is 3. In addition, in experiment [1], the “RF (Dz/para R): ratio” value was 20; the “RF (Mal R): ratio” value is on record as 6; the “LD50 LS2 … with 95% confidence limits” value was 52 (48–55), ng/fly; the “LD50 Llandillo 103 (Dz/para Resistant), with 95% confidence limits” value is 1050 (890–1280), ng/fly. Moreover, in experiment [1], the “LD50 Woodside 5.2 (Mal Resistant), with 95% confidence limits” value is reported as 290 (270–310), ng/fly.

With `CCOP(=O)(OC=C(Cl)Cl)OCC` [Ethyl Dichlorvos, 2,2-dichlorovinyl diethyl phosphate], the “resistance factor towards diethyl OP vs its dimethyl analogue” value in experiment [3] was “about two-fold greater resistance factors”. In addition, in experiment [1], the “RF (Dz/para R): ratio” value was 7; the “RF (Mal R): ratio” value was found to be 3; the “LD50 LS2 … with 95% confidence limits” value was 360 (300–420), ng/fly; the “LD50 Llandillo 103 (Dz/para Resistant), with 95% confidence limits” value is 2370 (2320–2410), ng/fly. Also, the “LD50 Woodside 5.2 (Mal Resistant), with 95% confidence limits” value in experiment [1] is reported as 1100 (700–1500) ng/fly.

For `COP(=S)(OC)Oc1ccc(SC)c(C)c1` [Fenthion, O,O-dimethyl O-[3-methyl-4-(methylthio)phenyl]phosphorothioate], the “resistance factor towards dimethyl OP vs its diethyl analogue” value in experiment [4] (in vivo) is “about two- to five-fold greater resistance factors”. In experiment [2], the “Resistance factor … Dz/para resistance type” value is on record as 3 (3) and the “Resistance factor … malathion resistance type” value is given as 7. Besides, in experiment [1], the “RF (Dz/para R): ratio” value was 3 (3); the “RF (Mal R): ratio” value is recorded as 5; the “LD50 LS2 … with 95% confidence limits” value was 61 (42–87), ng/fly; the “LD50 Llandillo 103 (Dz/para Resistant), with 95% confidence limits” value is 210 (180–240) ng/fly. In experiment [1], the “LD50 Woodside 5.2 (Mal Resistant), with 95% confidence limits” value is on record as 320 (210–490) ng/fly.

For `CCOP(=O)(OCC)O/C(=C\Cl)c1ccc(Cl)cc1Cl` [CVP, chlorfenvinphos], the CVP hydrolytic activity in experiment [5] (whole fly homogenates of 3 susceptible strains) is 0.5 to 1.0 pmol/min/mg; in experiment [5] (whole fly homogenates of 6 diazinon resistant strains), 8.2 to 30.0 pmol/min/mg; in experiment [5] (whole fly homogenates of 10 malathion resistant strains), 1.5 to 3.0 pmol/min/mg.

In the case of `COP(=O)(OC)OC=C(Cl)Cl` [Dichlorvos, 2,2-dichlorovinyl dimethyl phosphate], the “resistance factor towards dimethyl OP vs its diethyl analogue” value in experiment [4] (Woodside 5.2) is “about two- to five-fold greater resistance factors”. In addition, in experiment [2], the “Resistance factor … Dz/para resistance type” value was 3 and the “Resistance factor … malathion resistance type” value is recorded as 6. In experiment [1], the “RF (Dz/para R): ratio” value came to 4; the “RF (Mal R): ratio” value was 7; the “LD50 LS2 … with 95% confidence limits” value is reported as 41 (35–51), ng/fly; the “LD50 Llandillo 103 (Dz/para Resistant), with 95% confidence limits” value is recorded as 150 (95–190), ng/fly. The “LD50 Woodside 5.2 (Mal Resistant), with 95% confidence limits” value in experiment [1] is reported as 270 (210–340) ng/fly.
